Measurements reported in US8389739B1, “Modulators of retinoid-related orphan receptor gamma” (Orphagen Pharmaceuticals, priority 2006, dated 2013).
Values joined by “and” are separate entries in the source; they are usually repeats but may differ in a detail not shown here. Equal values may be shown once. “Also recorded” adds a separate entry of the source.

Tests used:
liver triglyceridemia = details: mice lacking the LXRα and LXRβ receptors; cited from earlier work
EAE [1] = details: mouse, in vivo; cited from earlier work
CIA = assay: Collagen-induced arthritis (CIA) in DBA/1 mice; assay type: in vivo; details: 100 mg/kg/day OR-1050 p.o. in HRC-6; AUC day 24 to 48, p<0.09
thymocytes = assay: Thymus weight and thymocyte subpopulations after oral dosing in C57BL/6 mice; assay type: in vivo; details: mouse, in vivo, 100 mg/kg
Method: In addition, the total number and the fraction of the major thymocyte subpopulations including CD4^+CD8^+ (DP), CD4^+CD8^- (SP4^+) and CD4^-CD8^+ (SP8^+) were measured by cell surface staining followed by FACS analysis. […] The volume of cells was adjusted to 8 mls. Debris from the thymus was allowed to settle, and a 200 μl aliquot of cells was incubated with fluorescent antibodies to CD4 and CD8 for 15 minutes at room temperature. […] Before analytical flow cytometry was carried out (FACS Calibur, Becton Dickinson), Caltag counting beads (from Invitrogen) were added to allow absolute quantitation of cell number. Thymus subpopulations were determined after gating for live cells. […] Dexamethasone reproducibly induces rapid apoptosis of DP thymocytes and reduction of thymic mass ([…], Drupt et al. 2000; Zubkova, Mostowski et al. 2005).

TH-17 cells = assay: TH-17 cell frequency in lymph nodes of PLP-immunized SJL/J mice; assay type: in vivo; details: 100 mg/kg OR-1050 in HRC-6 daily, day 9 after PLP immunization; fraction of total CD4+ cells
Method: FIGS. 11D-F SJL/J mice were immunized with 75 μg PLP139-151 (Day 0). Osmotic pumps delivering vehicle or OR-1050 ([…]) were inserted at Days 3 and 4. Day of onset (FIG. 11E) compares the first day when EAE severity is 1 or higher. The ratio of Th-17 cells (CD4^+CD8^−IL17^+) to […] was analyzed in a separate study (F FIG. 11F) at day 9 after immunization with PLP where mice had been dosed daily with OR-1050 (100 mg/kg in HRC-6) since […]. Statistics (panels A, B, D, F) were performed by Student's t-test. *, P<0.05; #, P<0.01 (mean±sem, n=7-10) or by the Mann-Whitney rank order test (FIGS. 11C, E, median values shown).
Since OR-1050 inhibits TH-17 cells in ex vivo culture, we also investigated whether TH-17 cell frequency was affected in OR-1050-treated animals. SJL/J female mice (n=9/group) were treated with 100 mg/kg OR-1050 in HRC-6 beginning two days before immunization with PLP (as described above) and continuing until 8 days after immunization. Animals were sacrificed on day 9, and TH-17 cells analyzed from pooled axillary, brachial, and inguinal lymph nodes from each animal. We found a 35% reduction in TH-17 frequency in lymph nodes of SJL/J mice (FIG. 11F) as a fraction of the total CD4^+ cell population. The change in TH-17 frequency with OR-1050 treatment was statistically significant.

[2] = Pharmacokinetics of OR-1050 in CD-1 mice, oral gavage; assay type: in vivo
Method: FIG. 12B. Bioavailability of OR-1050. OR-1050 was dosed in CD-1 mice at […] in HRC-6, a proprietary formulation that is commercially available from Pharmatek (San Diego, Calif.). Blood samples from triplicate animals were tested for levels of OR-1050 at multiple time points.
Pharmacokinetics of OR-1050 in CD-1 mice was analyzed at independent bioanalytical laboratory. Male CD-1 mice were treated via oral gavage with OR-1050 at 5 mg/kg in HRC-6. Blood was collected via retro-orbital puncture in tubes containing sodium heparin anticoagulant at 0, 5, 15, and 30 min, and at 1, 2, 4, 6, 8 and 24 hr after oral administration. The concentration of OR-1050 in plasma was determined using an HPLC/MS/MS method.

EAE [3] = assay: EAE model, C57BL/6 mice immunized with MOG35-55; assay type: in vivo; details: for median day of onset of symptoms (clinical score 1 or greater): oral gavage twice a day, corn oil vehicle day 18
liver triglycerides = assay: Liver triglycerides after oral dosing in C57BL/6 mice; assay type: in vivo
Method: […] A small piece of the liver (˜200 mg) was weighed and extracted to determine triglyceride content. Glycerol was liberated from liver triglycerides by hydrolysis in base. The liver fragment was incubated overnight at 55° C. in 0.35 mls of ethanolic KOH (2 parts EtOH: 1 part 30% KOH) in a closed tube. A solution of 50% ethanol in water was added to bring the volume of each tube to 1.0 ml. The solution was cleared of debris by centrifugation, and the resulting supernatant increased to 1.2 ml with further addition of 50% ethanol. Aqueous 1 M MgCl2 (215 μl) was added to 200 μl of the supernatant, and the mixture was cleared by centrifugation again after standing 10 min on ice. Glycerol levels were measured with the Sigma Free Glycerol Reagent (Sigma-Aldrich, St. Louis, Mo.) according to the manufacturer's instructions. The triglyceride concentration (in milligrams per gram of liver wet weight) was determined by assuming average molecular weight of 1000 daltons for each molecule of triglyceride.

EAE [4] = assay: EAE model, SJL/J mice immunized with PLP139-151, osmotic pump; assay type: in vivo

Frequency of DP (% of total cells) (thymocytes) [%]	Total cells per spleen (×10^−6) DP (thymocytes)	Total cells per spleen (×10^−6) SP4 (thymocytes)	Total cells per spleen (×10^−6) SP8 (thymocytes)	blood levels suggested for a higher dosage ([2]; extrapolated to 50 mg/kg)	Liver triglycerides (liver triglycerides; OR-1050 100 mg/kg (50 mg/kg twice per day by gavage, corn oil) for 7 days, vehicle 34.7 ± 5.7) [mg/g]	liver triglycerides, in words (liver triglycerides; daily exposure to 100 mg/kg OR-1050, six day study)	Compound	liver triglyceridemia (liver triglyceridemia)	development of murine EAE (EAE [1])	disease course of CIA (hind limb clinical scores) (CIA)	reduction in TH-17 frequency in lymph nodes (TH-17 cells) [%]	oral bioavailability, in words ([2]; mouse, in vivo, po)	median day of onset of symptoms (clinical score 1 or greater) (EAE [3]; 30 mg/kg total daily dose) [days]	onset of EAE, in words (EAE [3]; 100 mg/kg OR-1050 per day versus vehicle)	median day of onset of symptoms (clinical score 1 or greater) (EAE [3]; 100 mg/kg total daily dose, p<0.05) [days]	progress of disease and weight loss, in words (EAE [3]; high dose (50 mg/kg, 2× per day), FIG. 11A, 11B)	inflammatory infiltration in the spinal cord (EAE [3]; high dose, FIG. 11C, p<0.07, Mann-Whitney)	paralytic severity, in words (EAE [4]; FIG. 11D)	day of onset, in words (EAE [4]; FIG. 11E)	area under the severity curve (mean±sem) (EAE [4]; estimated 30 mg/kg daily, vehicle 14.5±1.6, p<0.01)
–	–	–	–	–	–	–	O=S(=O)(c1ccccc1)N(CC(F)(F)F)c1ccc(C(O)(C(F)(F)F)C(F)(F)F)cc1 [Compound T0901317, N-(2,2,2-Trifluoro-ethyl)-N-[4-(2,2,2-trifluoro-1-hydroxy-1-trifluoromethyl-ethyl)-phenyl]-benzenesulfonamide, reference compound]	no effect on liver triglyceridemia	inhibit the development of murine EAE	–	–	–	–	–	–	–	–	–	–	–
56.7 ± 3.1	61.5 ×10^−6	8.1 ×10^−6	2.5 ×10^−6	1 μg/ml and ~2 μM	119.5 ± 18.8	markedly elevated	CCN(c1ccc(C(O)(C(F)(F)F)C(F)(F)F)cc1)S(=O)(=O)c1ccc([N+](=O)[O-])cc1 [OR-1050, N-Ethyl-4-nitro-N-[4-(2,2,2-trifluoro-1-hydroxy-1-trifluoromethyl-ethyl)-phenyl]-benzenesulfonamide]	–	–	partly suppressed	35	modest bioavailability; also recorded: orally-bioavailable; also recorded: orally bioavailable	16	slows the onset of EAE; also recorded: significantly (p<0.05) delayed	26	inhibits progress of the disease and weight loss	reduced	reduced paralytic severity	significantly delayed	5.3±2.7
